Test results published in US20240018119A1, “CARBOXAMIDE DERIVATIVE AND PHARMACEUTICAL COMPOSITION COMPRISING SAME AS ACTIVE INGREDIENT FOR PREVENTING OR TREATING MENTAL ILLNESS” (DAEGU-GYEONGBUK MEDICAL INNOVATION FOUNDATION, priority 2020, published 2024).

Tests used:
Assay type in all cases: cell-based
dopamine transporter = biological target: T1, dopamine transporter (Homo sapiens, UniProt Q01959); test: Dopamine reuptake inhibition in transporter-transfected HEK-293 cells ([3H]-DA); settings: for Triple reuptake inhibition (Ratio %) DAT: compound 1 μM, 20-30 nM [3H]-DA, relative to control without compound (100%), lower = more inhibition; for IC50: concentration at which Ratio % is 50%, 6 concentrations 1 nM to 1 μM, read-out: Triple reuptake inhibition (IC50, μM) DAT
T1 construct: expressed in transfected cells; host or cells: HEK-293
T1 sequence (Q01959 whole entry): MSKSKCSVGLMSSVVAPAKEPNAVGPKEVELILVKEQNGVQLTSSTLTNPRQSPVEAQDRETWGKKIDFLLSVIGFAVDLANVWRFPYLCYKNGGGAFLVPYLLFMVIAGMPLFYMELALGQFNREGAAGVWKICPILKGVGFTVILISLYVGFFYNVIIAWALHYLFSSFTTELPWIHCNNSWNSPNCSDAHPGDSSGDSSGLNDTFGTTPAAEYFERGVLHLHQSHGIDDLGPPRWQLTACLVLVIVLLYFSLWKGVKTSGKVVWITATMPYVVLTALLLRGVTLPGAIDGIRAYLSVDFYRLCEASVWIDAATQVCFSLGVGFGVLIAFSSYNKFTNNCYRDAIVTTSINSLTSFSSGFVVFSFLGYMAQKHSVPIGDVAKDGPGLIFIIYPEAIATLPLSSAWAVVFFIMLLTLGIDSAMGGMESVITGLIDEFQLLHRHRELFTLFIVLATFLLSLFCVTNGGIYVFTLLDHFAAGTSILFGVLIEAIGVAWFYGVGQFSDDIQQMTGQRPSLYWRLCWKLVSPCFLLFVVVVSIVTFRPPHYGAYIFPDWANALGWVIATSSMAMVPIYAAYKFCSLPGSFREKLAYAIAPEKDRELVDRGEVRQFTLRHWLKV
Experimental: (§1) To evaluate the reuptake inhibitory effect on dopamine, the dopamine transporter cDNA was transfected using the HEK-293 cell line, and then sub-seeded in a 24 well plate the next day. After removing the medium, each compound of the Examples or Comparative Examples diluted to 1 μM in uptake buffer was added to a concentration of 200 μl/well and cultured at 37° C. for 15 minutes. 100 μl of uptake buffer containing 20-30 nM [3H]-DA was added and cultured at 37° C. for 5 minutes. The reaction solution was quickly removed and washed three times with 1 ml ice-cold uptake buffer. After dissolving the resultant in 1% SDS (0.5 ml), the degree of binding of radioisotope-labeled dopamine to the transporter was measured.
(§2) In addition, when evaluating the reuptake inhibitory effect on dopamine, norepinephrine, and serotonin, the same method was performed without treating each compound of the Examples or Comparative Examples as a control, the degree of binding of radioisotope-labeled dopamine, norepinephrine, and serotonin to the transporter was measured, and by using this as a standard (100%), the triple reuptake inhibitory effect was evaluated as a relative ratio (Ratio %). That is, in the control group, the binding of dopamine, norepinephrine, and serotonin to transporters is not inhibited, but when each compound of the Examples is treated and thus the binding is inhibited, the Patio % value decreases.
(§3) Meanwhile, the Patio % values were compared, and in the case of the compounds of Examples 6, 9, 10, 19, 20, 22, 24, 28, 30, 31, 32, 33, 35, 41, 42, 48, 49, 51, 55, 56, 59, 61, 63, 64, 65, 66, 74 and 76 with excellent reuptake inhibitory effects on dopamine, norepinephrine and serotonin, the concentration at which the Ratio % is 50% was calculated using a total of 6 concentrations (1 nM, 5 nM, 10 nM, 50 nM, 100 nM, and 1 μM) and expressed as IC50. In addition, in the case of the compound of Comparative Example 1, IC50 was obtained by the same method as the Example Compounds.

[1] = biological target: T2, norepinephrine transporter (Homo sapiens, UniProt P23975); test: Norepinephrine reuptake inhibition in transporter-transfected HEK-293 cells ([3H]-NE); settings: for Triple reuptake inhibition (Ratio %) NET: compound 1 μM, [3H]-NE, relative to control without compound (100%), lower = more inhibition
T2 construct: expressed in transfected cells; host or cells: HEK-293
T2 sequence (P23975 whole entry, species assumed): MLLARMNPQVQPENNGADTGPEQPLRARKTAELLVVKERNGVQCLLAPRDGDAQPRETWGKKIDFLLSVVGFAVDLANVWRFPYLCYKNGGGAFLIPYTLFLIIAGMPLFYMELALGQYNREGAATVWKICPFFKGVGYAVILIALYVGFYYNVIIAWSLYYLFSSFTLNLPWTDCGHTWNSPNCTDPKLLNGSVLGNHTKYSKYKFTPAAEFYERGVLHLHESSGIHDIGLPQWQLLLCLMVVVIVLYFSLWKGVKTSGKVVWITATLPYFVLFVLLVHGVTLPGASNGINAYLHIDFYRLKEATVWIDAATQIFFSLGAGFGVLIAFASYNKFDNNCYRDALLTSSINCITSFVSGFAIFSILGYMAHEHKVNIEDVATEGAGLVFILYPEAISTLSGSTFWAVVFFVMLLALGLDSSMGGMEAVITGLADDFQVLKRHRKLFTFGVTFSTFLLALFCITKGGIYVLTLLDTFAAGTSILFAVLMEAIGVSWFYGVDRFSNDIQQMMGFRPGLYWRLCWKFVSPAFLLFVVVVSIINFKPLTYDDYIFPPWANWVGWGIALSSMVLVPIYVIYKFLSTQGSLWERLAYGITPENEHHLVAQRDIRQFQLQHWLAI
Experimental: as §1
(§4) For norepinephrine (NE) and serotonin (5-HT), the degree of binding of radioisotope-labeled norepinephrine or serotonin to the transporter was measured in the same manner as above, except that cells transfected with NE or 5-HT transporter cDNA were used and [3H]-NE or [3H]-5-HT was used as a substrate.
as §2, §3

serotonin transporter = biological target: T3, serotonin transporter (Homo sapiens, UniProt P31645); test: Serotonin reuptake inhibition in transporter-transfected HEK-293 cells ([3H]-5-HT); settings: for Triple reuptake inhibition (Ratio %) SERT: compound 1 μM, [3H]-5-HT, relative to control without compound (100%), lower = more inhibition
T3 construct: expressed in transfected cells; host or cells: HEK-293
T3 sequence (P31645 whole entry): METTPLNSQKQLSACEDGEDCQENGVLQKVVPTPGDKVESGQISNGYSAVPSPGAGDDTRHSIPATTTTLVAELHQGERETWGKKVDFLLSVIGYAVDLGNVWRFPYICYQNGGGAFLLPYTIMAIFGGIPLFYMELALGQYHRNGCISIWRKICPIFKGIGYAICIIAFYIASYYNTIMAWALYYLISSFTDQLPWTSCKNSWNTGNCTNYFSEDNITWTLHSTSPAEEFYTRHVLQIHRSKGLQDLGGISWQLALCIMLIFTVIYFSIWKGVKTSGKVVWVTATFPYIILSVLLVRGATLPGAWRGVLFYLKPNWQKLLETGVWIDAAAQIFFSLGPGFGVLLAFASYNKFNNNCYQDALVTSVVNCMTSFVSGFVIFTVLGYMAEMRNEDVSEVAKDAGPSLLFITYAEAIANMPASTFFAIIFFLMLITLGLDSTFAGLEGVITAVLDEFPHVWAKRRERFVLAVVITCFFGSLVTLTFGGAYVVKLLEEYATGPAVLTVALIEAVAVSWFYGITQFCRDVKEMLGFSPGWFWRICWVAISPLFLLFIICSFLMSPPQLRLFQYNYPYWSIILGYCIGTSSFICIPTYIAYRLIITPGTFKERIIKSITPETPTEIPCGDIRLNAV
Experimental: as §1, §4, §2
In addition, in the case of the compound of Comparative Example 1, IC50 was obtained by the same method as the Example Compounds.

SMILES | Triple reuptake inhibition (Ratio %) DAT (dopamine transporter) [%] | Triple reuptake inhibition (Ratio %) NET [1] [%] | Triple reuptake inhibition (Ratio %) SERT (serotonin transporter) [%] | IC50 (dopamine transporter) [µM] | IC50 ([1]; concentration at which Ratio % is 50%, 6 concentrations 1 nM to 1 μM, read-out: Triple reuptake inhibition (IC50, μM) NET) [µM] | IC50 (serotonin transporter; concentration at which Ratio % is 50%, 6 concentrations 1 nM to 1 μM, read-out: Triple reuptake inhibition (IC50, μM) SERT) [µM]
O=C(NCCN1CCN(c2cccc(Cl)c2Cl)CC1)c1ccc(Cl)c(Cl)c1 [Example 13, 3,4-dichloro-N-(2-(4-(2,3-dichlorophenyl)piperazin-1-yl)ethyl)benzamide] | 106.09 | 94.42 | 89.10 | – | – | –
CCCCOc1ccc2[nH]c(C(=O)NCCN3CCC(Cc4ccccc4)CC3)cc2c1 [Example 67, N-(2-(4-benzylpiperidin-1-yl)ethyl)-5-butoxy-1H-indol-2-carboxamide] | 56.05 | 92.60 | 53.46 | – | – | –
O=C(NCCN1CCC(Cc2ccc(F)c(F)c2)CC1)c1cc2ccccc2[nH]1 [Example 27, N-(2-(4-(3,4-difluorobenzyl)piperidin-1-yl)ethyl)-1H-indol-2-carboxamide] | 71.77 | 69.72 | 75.39 | – | – | –
O=C(NCCN1CCN(c2cccc(C(F)(F)F)c2)CC1)c1cc2ccccc2[nH]1 [Example 21, N-(2-(4-(3-(trifluoromethyl)phenyl)piperazin-1-yl)ethyl)-1H-indol-2-carboxamide] | 94.30 | 97.95 | 86.98 | – | – | –
O=C(NCCNC(=O)c1cc2ccccc2[nH]1)c1ccc2ccccc2c1 [Example 45, N-(2-(2-naphthamido)ethyl)-1H-indol-2-carboxamide] | 110.91 | 102.98 | 91.05 | – | – | –
O=C(NCCN1CCN(c2ccc(Cl)c(Cl)c2)CC1)c1ccc(Cl)c(Cl)c1 [Example 14, 3,4-dichloro-N-(2-(4-(3,4-dichlorphenyl)piperazin-1-yl)ethyl)benzamide] | 94.20 | 105.49 | 88.61 | – | – | –

Continued, values first:

Triple reuptake inhibition (Ratio %) DAT (dopamine transporter) [%] | Triple reuptake inhibition (Ratio %) NET [1] [%] | Triple reuptake inhibition (Ratio %) SERT (serotonin transporter) [%] | IC50 (dopamine transporter) [µM] | IC50 ([1]; concentration at which Ratio % is 50%, 6 concentrations 1 nM to 1 μM, read-out: Triple reuptake inhibition (IC50, μM) NET) [µM] | IC50 (serotonin transporter; concentration at which Ratio % is 50%, 6 concentrations 1 nM to 1 μM, read-out: Triple reuptake inhibition (IC50, μM) SERT) [µM] | SMILES
90.63 | 100.99 | 87.07 | – | – | – | CN(CCNC(=O)c1cc2ccccc2[nH]1)Cc1ccc2ccccc2c1 [Example 68, N-(2-(methyl(napthalen-2-ylmethyl)amino)ethyl)-1H-indol-2-carboxamide]
22.84 | 57.21 | 47.72 | 0.362 | 0.543 | 0.237 | O=C(NCCN1CCC(Cc2ccccc2)CC1)c1nc2cc(O)ccc2[nH]1 [Example 64, N-(2-(4-benzylpiperidin-1-yl)ethyl)-5-hydroxy-1H-benzo[d]imidazol-2-carboxamide]
83.55 | 67.08 | 98.97 | – | – | – | O=C(NCCN1CCC(Cc2ccccc2)CC1)c1ccc[nH]1 [Example 75, N-(2-(4-benzylpiperidin-1-yl)ethyl)-1H-pyrrol-2-carboxamide]
79.32 | 92.95 | 84.69 | – | – | – | O=C(NCCNCc1ccc2ccccc2c1)c1cc2ccccc2[nH]1 [Example 54, N-(2-((naphthalen-2-ylmethyl)amino)ethyl)-1H-indol-2-carboxamide]
37.06 | 81.84 | 76.79 | 1.48 | – | – | O=C(NCCN1CCC(Cc2ccccc2)CC1)c1cc2cccnc2[nH]1 [Example 56, N-(2-(4-benzylpiperidin-1-yl)ethyl)-1H-pyrrolol[2,3-b]pyridin-2-carboxamide]
66.26 | 82.39 | 105.84 | – | – | – | O=C(NCCN1CCC(Cc2ccccc2)CC1)[C@H]1Cc2ccccc2N1 [Example 58, (R)—N-(2-(4-benzylpiperidin-1-yl)ethyl)indolin-2-carboxamide]
